Legend:
[1] = target: T1, HCV NS5B polymerase (NS5BΔCT21, from HCV-Con 1 isolate, genotype 1b) (Hepatitis C virus genotype 1b, UniProt Q9WMX2); assay: HCV NS5B Polymerase Inhibition Assay; format: biochemical; conditions: NS5B polymerase inhibition, [33P]-CTP incorporation, 22° C. for 2 hours; read-out: IC50
T1 construct: A soluble C-terminal 21-amino acid truncated NS5B enzyme form; polyhistidine (C); made in house; host or cells: Escherichia coli
Method in brief: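 His-tagged NS5BΔCT21 (30 or 150 nM) with 0.03 μM DCoH75 RNA template, 0.25 mM GAU, 0.1 μM ATP/GTP/UTP, 0.026 μM CTP plus [^33P]-CTP, pH 7.3, 2% DMSO; 2 h at 22° C. Incorporated radioactivity counted after filter capture. IC50 from 10-point 2-fold dilutions (top 200 μM to 1 μM) fitted to Hill equation.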

[2] = tested on: HCV replicon cells (replicon RNA level); assay: Cell-Based HCV Replicon Assay; conditions: Hepatitis C virus, 72 h; replicon RNA level by real time PCR (Taqman), cells harvested on day 3; read-out: EC50
Method in brief: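 Replicon cells at 5000/well received 10 serial 2-fold compound dilutions in 0.5% DMSO, 5% FBS, harvested day 3. Replicon RNA quantified by multiplex Taqman RT-PCR on NS5B versus GAPDH; EC50 and EC90 taken at ΔCT = 1 and 3.2 above baseline from sigmoid fits.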

SMILES | IC50 [1] | EC50 [2]
O=C(O)c1c(-c2ccc[nH]c2=O)c2c3ccoc3ccc2n1Cc1ccccc1F [Compound 39] | 25 to 100 nM | > 1500 nM
CCc1coc2c1ccc1c2c(-c2ccc[nH]c2=O)c(C(=O)NS(C)(=O)=O)n1Cc1cc(F)ccc1F [Compound 69] | > 100 nM | < 500 nM
Cc1ccccc1Cn1c(C(=O)NS(=O)(=O)C2CC2)c(-c2ccc[nH]c2=O)c2c3occc3ccc21 [Compound 138] | < 25 nM | < 500 nM
O=C(O)c1c(-c2ccc[nH]c2=O)c2c3c(ccc2n1Cc1cc(F)ccc1F)OC(F)(F)O3 [Compound 37] | < 25 nM | > 1500 nM
CS(=O)(=O)NC(=O)c1c(-c2ccc[nH]c2=O)c2c3occc3ccc2n1Cc1cc2ccccc2nc1Cl [Compound 180] | < 25 nM | < 500 nM
CS(=O)(=O)NC(=O)c1c(-c2ccc[nH]c2=O)c2c3ccoc3ccc2n1Cc1ccc(F)cc1F [Compound 9] | < 25 nM | > 1500 nM
O=C(O)c1c(-c2ccc[nH]c2=O)c2c3occc3ccc2n1Cc1cc2ccccc2nc1Cl [Compound 116] | < 25 nM | < 500 nM
O=C(O)c1c(-c2ccc[nH]c2=O)c2c3occc3ccc2n1Cc1ccc(F)cc1F [Compound 16] | < 25 nM | 500 to 1500 nM
O=C(O)c1c(-c2ccc[nH]c2=O)c2c3occc3c(F)cc2n1Cc1ccc2[nH]c(C(F)(F)F)nc2c1 [Compound 145] | < 25 nM | 500 to 1500 nM
O=C(NS(=O)(=O)C1CC1)c1c(-c2ccc[nH]c2=O)c2c3occc3c(F)cc2n1Cc1cc2nc[nH]c2cc1Cl [Compound 205] | < 25 nM | < 500 nM
Nc1n[nH]c2ccc(Cn3c(C(=O)O)c(-c4ccc[nH]c4=O)c4c5occc5c(F)cc43)cc12 [Compound 100] | < 25 nM | < 500 nM
O=C(O)c1c(-c2cccc(O)c2F)c2c3occc3c(F)cc2n1Cc1ccccc1F [Compound 88] | 25 to 100 nM | 500 to 1500 nM
